Measured values from ChEMBL document CHEMBL3576762, “Ribifolin, an orbitide from Jatropha ribifolia, and its potential antimalarial activity” (J Nat Prod, 2015).
Where a SMILES comes first, the peptide text is derived from it.

What was measured:
Plasmodium falciparum = test: Antimalarial activity against chloroquine-sensitive Plasmodium falciparum 3D7 infected in erythrocytes by Giemsa-stained blood smears under microscopy; format: functional, organism-based
HEK-293T = test: Cytotoxicity against human HEK293T cells at 0.001 to 100 uM after 48 hrs by MTT assay; format: cell-based

C[C@@H](O)[C@@H]1NC(=O)CNC(=O)[C@H](Cc2ccccc2)NC(=O)[C@H](Cc2ccccc2)NC(=O)CNC(=O)[C@H](Cc2ccccc2)NC(=O)[C@H](Cc2ccccc2)NC1=O (cyclo(FFGFFGT))
IC50 (Plasmodium falciparum): 2 µM

CC[C@H](C)[C@@H]1NC(=O)[C@H](C)NC(=O)[C@H](CC(C)C)NC(=O)[C@H]([C@@H](C)CC)NC(=O)[C@@H]2CCCN2C(=O)[C@H]([C@@H](C)CC)NC(=O)CNC(=O)[C@H](CCSC)NC1=O (cyclo(AIMGIPIL))
IC50 (Plasmodium falciparum): 9 µM

CC[C@H](C)[C@@H]1NC(=O)CNC(=O)[C@H](CC(C)C)NC(=O)[C@H](CC(C)C)NC(=O)[C@H]([C@@H](C)CC)NC(=O)[C@@H]2CCCN2C(=O)[C@H](CO)NC(=O)CNC(=O)[C@H](CC(C)C)NC1=O (cyclo(GILGSPILL))
IC50 (Plasmodium falciparum): 10000 µM

H-ILGSIILG-OH
IC50 (Plasmodium falciparum): 519 µM | Activity (HEK-293T): Non-toxic

CC[C@H](C)[C@@H]1NC(=O)[C@H]([C@@H](C)O)NC(=O)CNC(=O)[C@H](Cc2ccccc2)NC(=O)[C@H](C(C)C)NC(=O)CNC(=O)[C@H](CC(C)C)NC1=O (cyclo(FGTILGV))
IC50 (Plasmodium falciparum): 16 µM

CC[C@H](C)[C@@H]1NC(=O)CNC(=O)[C@H](CC(C)C)NC(=O)[C@H]([C@@H](C)CC)NC(=O)[C@H]([C@@H](C)CC)NC(=O)[C@H](CO)NC(=O)CNC(=O)[C@H](CC(C)C)NC1=O (cyclo(GILGSIIL))
IC50 (Plasmodium falciparum): 42 µM | Activity (HEK-293T): Non-toxic
